Experimental data reported in patent publication US6242564A (priority 1992, dated 2001).

Key:
[1] = target: HIV viral receptors, such as T4 (Homo sapiens, UniProt P01730); assay: General statements of receptor binding / activity, test not specified
[2] = test system: T4 antigen (gp 120 receptor) on rat hippocampal membranes; assay: Displacement of specific 125I-gp 120 binding to fresh rat hippocampal (brain) membranes
Method: ETLV-IIIb isolate of HIV was propaged in H9 cells, and the gp 120 was isolated by immunoaffinity chromatography and preparative NaDodSO4 /PAGE. Purified gp 120 was labeled with 125 by the chloramine-T method.
Fresh human, monkey, and rat hippocampus were quickly homogenized (POLYTRON, Brinkmann Instruments) in 100 vol. of ice-cold 50 mM Hepes (pH 7.4). The membranes collected by centrifugation (15,000×g) were washed in the original buffer volume and were used fresh or stored at -70° C. Before use, brain membranes and highly purified T cells were preincubated for 15-30 min in phosphate-buffered saline (PBS). Preincubated membranes derived from 2 mg (initial we weight) of brain (α100 μg of protein) were incubated with 28,000 cpm of 125I -gp 120 for 1 hour at 37° C. in 200 μl (final volume) of 50 mM Hepes containing 0.1% bovine serum albumin and the peptidase inhibitors bacitracin (0.005%), aprotinin (0.005%), leupeptin (0.001%), and chymostatin (0.001%). Incubations were rapidly vacuum-filtered and counted to determine the receptor-bound material.
Each determination was performed in triplicate; the results of one experiment, which was performed three times with similar results, is shown. Specific binding (FIG. 2b) displaceable by 10 μg/ml of OKT4 and 4A ranged between 27 and 85% of total binding, which was 2,201±74 cpm in the experiment shown.

HTLV-III virus (HIV) = assay: Blockade of viral infection of human T cells (reverse transcriptase activity); format: cell-based; details: for Rank order of potencies in inhibiting receptor binding and viral infectivity: FIGS. 2c, 3
Method: The treated cells were then panned on a plastic Petri dish that was coated with goat [F(ab')2 ] anti-mouse immunoglobulin (Sero Lab, Eastbury, Mass.) for 20 min at 4° C. The nonadherent cells were then removed, washed, and analyzed for reactivity by flow cytometry. […] Cells were then cultured with phytohemagglutinin (1 μg/ml) for 72 hrs and exposed to HIV as described below. Infected cells were phenotypically characterized when cytotoxicity assays were performed.
The HTLV-III virus used for infection was isolated from an interleukin 2 (IL-2)-dependent cultured T-cell line established from fresh AIDS patient material and passaged into HuT 78, permissive IL-2-independent cell line.
Each determination was performed in duplicate.

HIV = details: in vitro; cited from earlier work
gp 120 = details: in vitro; cited from earlier work

CYS-THR-THR-ASN-TYR-THR-CYS (CTTNYTC; printed: CYS-THR-THR-ASN-TYR-THR-CYS) [seven amino acid peptide, core with added cysteines]
Activity (test not specified) [1]: also active

C[C@H](N)C(=O)N[C@@H](CO)C(=O)N[C@H](C(=O)N[C@H](C(=O)N[C@H](C(=O)N[C@@H](CC(N)=O)C(=O)N[C@@H](Cc1ccc(O)cc1)C(=O)N[C@@H](C(N)=O)[C@H](C)O)[C@@H](C)O)[C@@H](C)O)[C@@H](C)O [D-[Thr]8-peptide T-amide]
Loss of receptor binding activity versus peptide T [2]: ≥ 100 fold
Rank order of potencies in inhibiting receptor binding and viral infectivity (HTLV-III virus (HIV)): D-[Ala]1 -peptide T-amide>D-[Ala]1 -peptide T>peptide T>D-[Thr]8 -peptide T-amide
Concentration required for significant inhibition of viral infection, relative to the active peptides (HTLV-III virus (HIV); human T cells): 100 fold
Blockade of viral infectivity (in words) (HTLV-III virus (HIV); human T cells, FIG. 3): greatly reduced blockade of viral infection

C[C@@H](N)C(=O)N[C@@H](CO)C(=O)N[C@H](C(=O)N[C@H](C(=O)N[C@H](C(=O)N[C@@H](CC(N)=O)C(=O)N[C@@H](Cc1ccc(O)cc1)C(=O)N[C@H](C(N)=O)[C@@H](C)O)[C@@H](C)O)[C@@H](C)O)[C@@H](C)O [D-[Ala]1-peptide T-amide]
Rank order of potencies in inhibiting receptor binding and viral infectivity (HTLV-III virus (HIV)): D-[Ala]1 -peptide T-amide>D-[Ala]1 -peptide T>peptide T>D-[Thr]8 -peptide T-amide

VIP: Vasoactive Intestinal Peptide
HIV replication in cell culture (HIV): inhibit
Binding of gp 120 to brain tissue (gp 120): inhibit
